# In patent publication US10035816B2, “Compound for treating respiratory syncytial virus infection and preparation method and use thereof” (SHANDONG UNIVERSITY, priority 2016, dated 2018):
# Key:
# Type in all cases: cell-based
# [1] = test system: Human respiratory syncytial virus Long strain; test: RSV replication assay (virus yield / focus titration in HEp-2 cells); conditions: for maximum inhibition effect on RSV replication: compounds tested at 2 ìM and 8 ìM, HEp-2 cells, MOI 0.1, compared with blank control (FIG. 4)
# Protocol: The detection procedure of compound effect on RSV replication inhibiting is as following. Human respiratory syncytial virus Long strain and HEp-2 cells were used for infection assays. Cells were maintained in DMEM, supplemented with penicillin/streptomycin and 10% FBS, and incubated at 37° C., 5% CO2. Virus was passaged in HEp-2 cells in the same conditions, but with 2% FBS. Virus stocks were prepared by infecting confluent HEp-2 cells at a low multiplicity of infection (MOI) of 0.1 for two to three days. Cells and virus-containing supernatant were then subjected to a single freeze/thaw cycle at −80° C. to release cell-bound virus, and the sample was clarified by centrifugation at 2000×g for 10 min at 4° C. The supernatant was homogenized, aliquoted and stored at −20° C.
# Compounds were tested either during virus adsorption for 1 h at 4° C. to investigate viral entry, post-adsorption for 72 h at 37° C. to investigate viral propagation and replication, or during all stages of infection. The concentration of compound resulting in 50% inhibition (IC50) of virus replication was determined by focus counting (viral entry) or focus size measurement (viral propagation) and was determined using non-linear regression analysis using GraphPad Prism. To assess the cytotoxicity of compounds, a CellTiter-Glo Luminescent Cell Viability Assay was carried following the manufacturer's instruction in the conditions of the focus reduction assay.
# As shown in the figure, compounds were tested at 2 concentrations (2 ìM, 8 ìM) in the RSV replication assay. The control (compound-free) is scored at 100% replication.
# Human respiratory syncytial virus Long strain (ATCC reference VR-26) and HEp-2 cells (ATCC reference CCL-23) were used for infection assays. Cells were maintained in DMEM, supplemented with penicillin/streptomycin and 10% FBS, and incubated at 37° C., 5% CO2. Virus was passaged in HEp-2 cells in the same conditions, but with 2% FBS. Virus stocks were prepared by infecting confluent HEp-2 cells at a low multiplicity of infection (MOI) of 0.1 for two to three days. […]
# [2] = test system: Smo-dependent SAG induced gene expression (Hh signal pathway); test: Hedgehog (Hh) signal pathway inhibition assay, Gli-binding site-luciferase reporter in NIH3T3 cells; conditions: compound 10 uM, SAG 0.5 ìM, control (compound-free, presence of SAG) = 100% gene expression (FIG. 5)
# Protocol: The detection procedure of compound effect on Hh signal pathway inhibiting is as following. NIH3T3 cells are seeded cells in 6 well plates, or 12 well plate one day in advance, with 5% FBS DMEM, without antibiotics per well so that they will be 90˜95% confluent at the time of transfection. Plasmids are diluted with Lipofectamine 2000 (total volume is 100-1000 ìl) and added to each well containing cells and medium, followed by incubation at 37° C. in a CO2 incubator for 48 h. […] At the end of the incubation, cells are washed, lysed and lysate transferred to a 96-well white plate. LAR II reagent is added (from Promega, Dual-luciferase reporter assay system) and samples read in a luminescence reader.
# The control (compound-free, presence of SAG) is scored at 100% gene expression.
# [3] = test system: RSV replication and Hh activity; test: Coefficient of inhibition (ICrh): RSV replication inhibition vs. Hh pathway inhibition relative to CPM; conditions: ratio of RSV inhibition to Hh inhibition of the analog divided by the same ratio of CPM; >1 favorable (FIG. 6)
# From the text: To assess the differential Hh pathway inhibition vs. replication inhibition of analogs (cpd), we determined a coefficient of inhibition (ICrh).
# A score higher than 1 indicates a favorable profile.
# The substep of screening compounds is that selecting the compounds with ICrh data larger than 1, and filtering out the compounds with ICrh data smaller than 1. Furthermore, the compounds with larger ICrh data will be selected preferentially.
Compound,maximum inhibition effect on RSV replication [1],inhibition of SAG-induced gene expression [2],coefficient of inhibition on RSV replication and Hh activity (ICrh) [3],RSV replication in the presence of compound ([1]; compound-free control scored at 100% replication (FIG. 4))
CCNC(=O)O[C@H]1CC[C@@]2(C)C(=CC[C@H]3[C@@H]4CC[C@]5(O[C@@H]6C[C@H](C)CN(C(=O)C(F)(F)F)[C@H]6[C@H]5C)C(C)=C4C[C@@H]32)C1 [S1-2],99%,36%,1.446,–
CC1=C2C[C@H]3[C@@H](CC=C4C[C@@H](OC(=O)NC5CC5)CC[C@@]43C)[C@@H]2CC[C@]12O[C@@H]1C[C@H](C)CN(C(=O)C(F)(F)F)[C@H]1[C@H]2C [S1-4],88%,5%,1.617,–
"cyclopamine [CPM, reference compound]",–,56%,–,0%
